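Growth conditions: 96-well plates. Treatment: test compound, 48 hours, 5 concentrations. Analysis: linear interpolation between bracketing concentrations; unreached endpoints set to highest concentration. GI50 marks 50% less growth.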 Activity calls are given as the source filed them. No stated cut-off is given here; in the data, active = GI50 up to about 1.1 µM and inactive = higher. Square brackets hold non-standard residues; d marks the D form. Peptide text beside a SMILES is read from it. * marks the point of attachment. X26 = COC1=CC(=O)N(C(=O)[C@@H](O*)C(C)C)[C@H]1Cc1ccccc1; NMeL = CN[C@@H](CC(C)C)C(=O)O; Hexanoyl = CCCCCC(=O)*
Key:
Test in all cases: DTP human tumour cell line panel, 48 h
A498 = system: A498
ACHN = system: ACHN
HL-60 = system: HL-60
HOP-62 = system: HOP-62
HOP-92 = system: HOP-92
M14 = system: M14
Malme-3M = system: Malme-3M
NCI-H23 = system: NCI-H23
NCI-H460 = system: NCI-H460
OVCAR-3 = system: OVCAR-3
OVCAR-8 = system: OVCAR-8
PC-3 = system: PC-3
RPMI-8226 = system: RPMI-8226
SF-268 = system: SF-268
SF-539 = system: SF-539
SK-MEL-2 = system: SK-MEL-2
SK-MEL-5 = system: SK-MEL-5
SW-620 = system: SW-620
U-251 = system: U-251

Measured: GI50

C=CCOc1ccc(C2(c3ccc(OCC=C)cc3)C(=O)Nc3ccccc32)cc1
inactive: A498 > 10 µM | ACHN > 10 µM | HL-60 > 10 µM | HOP-62 > 10 µM | HOP-92 > 10 µM | M14 > 10 µM | Malme-3M > 10 µM | NCI-H23 > 10 µM | NCI-H460 > 10 µM | OVCAR-3 > 10 µM | OVCAR-8 > 10 µM | PC-3 > 10 µM | RPMI-8226 > 10 µM | SF-268 > 10 µM | SF-539 > 10 µM | SK-MEL-2 > 10 µM | SK-MEL-5 > 10 µM | SW-620 > 10 µM | U-251 > 10 µM

CC1CN=C(Nc2ccc(F)cc2F)S1 (stereo unspecified)
inactive: A498 > 100 µM | ACHN > 100 µM | HL-60 > 100 µM | HOP-62 > 100 µM | HOP-92 15.6 µM | Malme-3M > 100 µM | NCI-H23 > 100 µM | NCI-H460 > 100 µM | OVCAR-3 > 100 µM | OVCAR-8 > 100 µM | PC-3 > 100 µM | RPMI-8226 > 100 µM | SF-268 > 100 µM | SF-539 > 100 µM | SK-MEL-2 > 100 µM | SK-MEL-5 > 100 µM | SW-620 > 100 µM | U-251 > 100 µM

C=C1C(=O)O[C@@H]2[C@@H]3O[C@@H](C[C@@H]13)[C@](C)(O)CC/C=C(\C)CCC[C@@H]2C
inactive: A498 13.2 µM | ACHN 8.91 µM | HL-60 2.8 µM | HOP-62 15.9 µM | HOP-92 13.2 µM | M14 12.2 µM | Malme-3M 13.3 µM | NCI-H23 13.3 µM | NCI-H460 14.1 µM | OVCAR-3 12.5 µM | OVCAR-8 6.7 µM | PC-3 10.4 µM | RPMI-8226 2.82 µM | SF-268 16.9 µM | SF-539 10.5 µM | SK-MEL-2 13.3 µM | SK-MEL-5 16.4 µM | SW-620 5.46 µM | U-251 10.5 µM

CCOP(=O)(OCC)C(Nc1cccc(F)c1)c1ccccc1 (stereo unspecified)
inactive: A498 > 100 µM | ACHN 58.7 µM | HL-60 18.1 µM | HOP-62 > 100 µM | HOP-92 32.7 µM | M14 69.5 µM | Malme-3M 50.7 µM | NCI-H23 > 100 µM | NCI-H460 43.9 µM | OVCAR-3 60.5 µM | OVCAR-8 62.2 µM | PC-3 50.2 µM | RPMI-8226 29.7 µM | SF-268 59 µM | SF-539 > 100 µM | SK-MEL-2 47.9 µM | SK-MEL-5 42.2 µM | SW-620 > 10 µM | U-251 74.1 µM

CCOP(=O)(OCC)C(Nc1cccc(F)c1)c1ccc(N(C)C)cc1 (stereo unspecified)
inactive: A498 > 100 µM | ACHN > 100 µM | HL-60 45.7 µM | HOP-62 > 100 µM | HOP-92 18 µM | M14 74.3 µM | Malme-3M > 100 µM | NCI-H23 > 100 µM | NCI-H460 63 µM | OVCAR-3 > 100 µM | OVCAR-8 > 100 µM | PC-3 62.1 µM | RPMI-8226 67.6 µM | SF-268 > 100 µM | SF-539 > 100 µM | SK-MEL-2 > 100 µM | SK-MEL-5 71 µM | SW-620 > 100 µM | U-251 > 100 µM

C=CCOc1cccc(C2(O)c3ccccc3C3=NCCCN32)c1 (stereo unspecified)
inactive: A498 21.8 µM | ACHN 3.63 µM | HL-60 1.47 µM | HOP-62 6.84 µM | HOP-92 21.8 µM | M14 12.4 µM | Malme-3M 19.9 µM | NCI-H23 10.3 µM | NCI-H460 16.8 µM | OVCAR-3 1.25 µM | OVCAR-8 14.4 µM | PC-3 10.3 µM | RPMI-8226 15.2 µM | SF-268 54.7 µM | SF-539 15.8 µM | SK-MEL-2 1.72 µM | SK-MEL-5 17 µM | SW-620 11.9 µM | U-251 15.6 µM

CCCCCC(=O)N[C@H](C(=O)N[C@H](C(=O)N(C)[C@@H](CC(C)C)C(=O)N1CCC[C@H]1C(=O)N1CCC[C@H]1C(=O)O[C@H](C(=O)N1C(=O)C=C(OC)[C@@H]1Cc1ccccc1)C(C)C)C(C)C)C(C)C (Hexanoyl-VV[NMeL]PP-X26)
inactive: A498 51.5 µM | ACHN > 100 µM | HL-60 1.46 µM | HOP-62 > 100 µM | HOP-92 36.1 µM | M14 > 33.3 µM | Malme-3M > 20.5 µM | NCI-H23 21.2 µM | NCI-H460 > 100 µM | OVCAR-3 > 100 µM | OVCAR-8 > 100 µM | PC-3 27.2 µM | RPMI-8226 2.74 µM | SF-268 > 41.9 µM | SF-539 > 59.2 µM | SK-MEL-2 > 100 µM | SW-620 > 100 µM | U-251 > 91.6 µM
